Data: ChEMBL document CHEMBL3856246, “Pharbilignan C induces apoptosis through a mitochondria-mediated intrinsic pathway in human breast cancer cells” (Bioorg Med Chem Lett, 2016)
Activity calls are given as the source filed them. No cut-off for these calls is given here.

How the values were obtained:
MDA-MB-231 [1] = test: Induction of apoptosis in human MDA-MB-231 cells assessed as caspase-9 activation upto 20 uM after 72 hrs by Western blot analysis; format: functional, cell-based
MDA-MB-231 [2] = test: Induction of apoptosis in human MDA-MB-231 cells assessed as necrotic cells at 10 uM after 72 hrs by Annexin V-FITC/propidium iodide based flow cytometric analysis (reference value: 0.33 %); format: functional
MDA-MB-231 [3] = test: Induction of apoptosis in human MDA-MB-231 cells assessed as late apoptotic cells at 10 uM after 72 hrs by Annexin V-FITC/propidium iodide based flow cytometric analysis (reference value: 0.07 %); format: functional
MCF7 [4] = test: Induction of apoptosis in human MCF7 cells assessed as necrotic cells at 10 uM after 72 hrs by Annexin V-FITC/propidium iodide based flow cytometric analysis (reference value: 3.48 %); format: functional
MCF7 [5] = test: Induction of apoptosis in human MCF7 cells assessed as late apoptotic cells at 10 uM after 72 hrs by Annexin V-FITC/propidium iodide based flow cytometric analysis (reference value: 1.28 %); format: functional
MDA-MB-231 [6] = test: Induction of apoptosis in human MDA-MB-231 cells assessed as early apoptotic cells at 20 uM after 72 hrs by Annexin V-FITC/propidium iodide based flow cytometric analysis (reference value: 7.73 %); format: functional
MDA-MB-231 [7] = test: Induction of apoptosis in human MDA-MB-231 cells assessed as caspase-3 activation upto 20 uM after 72 hrs by Western blot analysis; format: functional, cell-based
MDA-MB-231 [8] = test: Induction of apoptosis in human MDA-MB-231 cells assessed as necrotic cells at 20 uM after 72 hrs by Annexin V-FITC/propidium iodide based flow cytometric analysis (reference value: 0.33 %); format: functional
MDA-MB-231 [9] = test: Induction of apoptosis in human MDA-MB-231 cells assessed as downregulation of Bcl2 expression up to 20 uM after 72 hrs by Western blot analysis; format: functional, cell-based
MDA-MB-231 [10] = test: Induction of apoptosis in human MDA-MB-231 cells assessed as necrotic cells at 5 uM after 72 hrs by Annexin V-FITC/propidium iodide based flow cytometric analysis (reference value: 0.33 %); format: functional
MDA-MB-231 [11] = test: Induction in apoptosis in human MDA-MB-231 cells assessed as decrease in mitochondrial membrane potential at 20 uM after 24 hrs by JC1 fluorescent dye based confocal microscopic analysis; format: functional, cell-based
MCF7 [12] = test: Induction of apoptosis in human MCF7 cells assessed as necrotic cells at 20 uM after 72 hrs by Annexin V-FITC/propidium iodide based flow cytometric analysis (reference value: 3.48 %); format: functional
MDA-MB-231 [13] = test: Induction of apoptosis in human MDA-MB-231 cells assessed as viable cells at 20 uM after 72 hrs by Annexin V-FITC/propidium iodide based flow cytometric analysis (reference value: 91.87 %); format: functional; conditions: MDA-MB-231, 72 h, read-out: Activity
MCF7 [14] = test: Induction of apoptosis in human MCF7 cells assessed as early apoptotic cells at 10 uM after 72 hrs by Annexin V-FITC/propidium iodide based flow cytometric analysis (reference value: 1.14 %); format: functional
[15] = Cytotoxicity against human SKOV3 cells after 48 hrs by SRB assay; format: functional, cell-based; conditions: SK-OV-3, 48 h
MDA-MB-231 [16] = test: Induction of apoptosis in human MDA-MB-231 cells assessed as early apoptotic cells at 5 uM after 72 hrs by Annexin V-FITC/propidium iodide based flow cytometric analysis (reference value: 7.73 %); format: functional
MCF7 [17] = test: Induction of apoptosis in human MCF7 cells assessed as early apoptotic cells at 20 uM after 72 hrs by Annexin V-FITC/propidium iodide based flow cytometric analysis (reference value: 1.14 %); format: functional
[18] = Cytotoxicity against human SK-MEL-2 cells after 48 hrs by SRB assay; format: functional, cell-based; conditions: SK-MEL-2, 48 h
[19] = Cytotoxicity against human HCT15 cells after 48 hrs by SRB assay; format: functional, cell-based; conditions: HCT-15, 48 h
MDA-MB-231 [20] = test: Induction of apoptosis in human MDA-MB-231 cells assessed as late apoptotic cells at 20 uM after 72 hrs by Annexin V-FITC/propidium iodide based flow cytometric analysis (reference value: 0.07 %); format: functional
MCF7 [21] = test: Cytotoxicity against human MCF7 cells assessed as reduction in cell viability after 72 hrs by WST1 assay; format: functional, cell-based
MDA-MB-231 [22] = test: Induction of apoptosis in human MDA-MB-231 cells after 72 hrs by Annexin V-FITC/propidium iodide based flow cytometric analysis; format: functional, cell-based
[23] = Induction of apoptosis in human MDA-MB-231 cells assessed as upregulation of Bax expression up to 20 uM after 72 hrs by Western blot analysis; format: functional, cell-based
MCF7 [24] = test: Induction of apoptosis in human MCF7 cells assessed as late apoptotic cells at 20 uM after 72 hrs by Annexin V-FITC/propidium iodide based flow cytometric analysis (reference value: 1.28 %); format: functional
MDA-MB-231 [25] = test: Induction of apoptosis in human MDA-MB-231 cells assessed as viable cells at 5 uM after 72 hrs by Annexin V-FITC/propidium iodide based flow cytometric analysis (reference value: 91.87 %); format: functional; conditions: MDA-MB-231, 72 h, read-out: Activity
MCF7 [26] = test: Induction of apoptosis in human MCF7 cells assessed as viable cells at 20 uM after 72 hrs by Annexin V-FITC/propidium iodide based flow cytometric analysis (reference value: 94.10 %); format: functional; conditions: MCF7, 72 h, read-out: Activity
MDA-MB-231 [27] = test: (§1) Cytotoxicity against human MDA-MB-231 cells assessed as reduction in cell viability after 72 hrs by WST1 assay; format: functional, cell-based
[28] = as §1; format: functional, cell-based; conditions: MDA-MB-231, 72 h
MDA-MB-231 [29] = test: Induction of apoptosis in human MDA-MB-231 cells assessed as early apoptotic cells at 10 uM after 72 hrs by Annexin V-FITC/propidium iodide based flow cytometric analysis (reference value: 7.73 %); format: functional
MCF7 [30] = test: Induction of apoptosis in human MCF7 cells assessed as viable cells at 5 uM after 72 hrs by Annexin V-FITC/propidium iodide based flow cytometric analysis (reference value: 94.10 %); format: functional; conditions: MCF7, 72 h, read-out: Activity
MCF7 [31] = test: Induction of apoptosis in human MCF7 cells assessed as late apoptotic cells at 5 uM after 72 hrs by Annexin V-FITC/propidium iodide based flow cytometric analysis (reference value: 1.28 %); format: functional
MCF7 [32] = test: Induction of apoptosis in human MCF7 cells assessed as viable cells at 10 uM after 72 hrs by Annexin V-FITC/propidium iodide based flow cytometric analysis (reference value: 94.10 %); format: functional; conditions: MCF7, 72 h, read-out: Activity
MDA-MB-231 [33] = test: Induction of apoptosis in human MDA-MB-231 cells assessed as late apoptotic cells at 5 uM after 72 hrs by Annexin V-FITC/propidium iodide based flow cytometric analysis (reference value: 0.07 %); format: functional
MDA-MB-231 [34] = test: Induction of apoptosis in human MDA-MB-231 cells assessed as viable cells at 10 uM after 72 hrs by Annexin V-FITC/propidium iodide based flow cytometric analysis (reference value: 91.87 %); format: functional; conditions: MDA-MB-231, 72 h, read-out: Activity
MCF7 [35] = test: Induction of apoptosis in human MCF7 cells assessed as necrotic cells at 5 uM after 72 hrs by Annexin V-FITC/propidium iodide based flow cytometric analysis (reference value: 3.48 %); format: functional
MCF7 [36] = test: Induction of apoptosis in human MCF7 cells assessed as early apoptotic cells at 5 uM after 72 hrs by Annexin V-FITC/propidium iodide based flow cytometric analysis (reference value: 1.14 %); format: functional
[37] = Cytotoxicity against human A549 cells after 48 hrs by SRB assay; format: functional, cell-based; conditions: A549, 48 h

SMILES: CCOC(=O)/C=C/c1cc(O)c2c(c1)[C@@H](C(=O)OCC)[C@@H](c1ccc(O)c(O)c1)O2
- Activity (MDA-MB-231 [1]): Active
- Activity (MDA-MB-231 [2]): 1.9%
- Activity (MDA-MB-231 [3]): 1.5%
- Activity (MCF7 [4]): 9.3%
- Activity (MCF7 [5]): 1.1%
- Activity (MDA-MB-231 [6]): 25.63%
- Activity (MDA-MB-231 [7]): Active
- Activity (MDA-MB-231 [8]): 2.87%
- Activity (MDA-MB-231 [9]): Active
- Activity (MDA-MB-231 [10]): 0.2%
- Activity (MDA-MB-231 [11]): Active
- Activity (MCF7 [12]): 12.46%
- viability at 20 µM (MDA-MB-231 [13]): 68.3%
- Activity (MCF7 [14]): 0.7%
- IC50 [15]: 160 nM
- Activity (MDA-MB-231 [16]): 6.73%
- Activity (MCF7 [17]): 1.22%
- IC50 [18]: 200 nM
- IC50 [19]: 140 nM
- Activity (MDA-MB-231 [20]): 3.17%
- Activity (MCF7 [21]): Dose-dependent effect
- Activity (MDA-MB-231 [22]): Dose-dependent effect
- Activity [23]: Active
- Activity (MCF7 [24]): 1.38%
- viability at 5 µM (MDA-MB-231 [25]): 93%
- viability at 20 µM (MCF7 [26]): 84.9%
- Activity (MDA-MB-231 [27]): Dose-dependent effect
- IC50 [28]: 7000 nM
- Activity (MDA-MB-231 [29]): 19.5%
- viability at 5 µM (MCF7 [30]): 91.5%
- Activity (MCF7 [31]): 0.6%
- viability at 10 µM (MCF7 [32]): 88.9%
- Activity (MDA-MB-231 [33]): 0.1%
- viability at 10 µM (MDA-MB-231 [34]): 77.1%
- Activity (MCF7 [35]): 7.24%
- Activity (MCF7 [36]): 0.68%
- IC50 [37]: 1420 nM
